Experimental data as given in BindingDB's records for doi:10.1021/jm030121k (Boehringer Ingelheim Pharmaceuticals, 2003).

Target: Mitogen-activated protein kinase 14 (Mus musculus, UniProt P47811)
Assay: UV-Thermal Melt
Protocol: UV thermal melt experiments were carried out in a quartz cuvette loaded with sample containing enzyme and each test compound using a spectrophotometer. For each measurement, absorbance data at 230 nm was collected as the temperature was scanned from 25 to 80 C at a ramp rate of 0.2 C /min. The melting temperature (Tm) for each sample was calculated as the maximum deflection point of the first derivative of the melting transition.

Chain of Mitogen-activated protein kinase 14 (P47811 whole entry): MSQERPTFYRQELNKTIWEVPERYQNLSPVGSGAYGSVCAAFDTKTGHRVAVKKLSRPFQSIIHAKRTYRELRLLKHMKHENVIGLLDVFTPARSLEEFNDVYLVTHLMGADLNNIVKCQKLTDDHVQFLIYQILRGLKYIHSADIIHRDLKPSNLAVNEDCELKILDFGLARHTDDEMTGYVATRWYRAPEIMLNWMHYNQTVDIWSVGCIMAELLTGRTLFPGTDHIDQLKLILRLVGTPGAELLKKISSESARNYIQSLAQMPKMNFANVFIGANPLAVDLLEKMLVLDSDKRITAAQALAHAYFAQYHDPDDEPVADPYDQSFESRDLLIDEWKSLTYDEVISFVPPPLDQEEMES

- Kd: 11 nM
SMILES: Cc1ccc(-n2nc(C(C)(C)C)cc2NC(=O)Nc2cccc3ccccc23)cc1 [BIRB-796 Analog 4]
